Test results taken from patent publication US6656729B2, “Compositions which inhibit apoptosis, methods of purifying the compositions and uses thereof” (Sky High, LLC, priority 1993, dated 2003).

Test system: C3H 10T1/2 cells
Test: Apoptosis assay with C3H 10T1/2 cells (serum deprivation)
Type: cell-based
Conditions: for ACTIVITY (anti-apoptotic activity of known phospholipids): serum-deprived 10T½ cells, dissolved at 10 mM (100× test concentration), pre-incubation in 1% BSA, final BSA ≦0.01%
Procedure: In order to determine the apoptotic activity of the PAIs, the following experiment was performed. […] Exponential growth phase was assured by seeding at 2000 cells per 1 ml (5 ml for a 60 mm culture plate) five days prior to the beginning of the experiment. At T=0, cultures were transferred to serum-free medium, as an apoptosis stimulus, and seed extracts were added. Controls included 10^−7 M 12-O-tetradecanoyl phorbol-13-acetate (TPA) to ensure the responsiveness of the cell culture. The PAI samples prepared by extraction with ethanol and by gel filtration were added to serum free medium at 0.1 g dry weight equivalents and sterile filtered prior to addition to the cultures. Assays were performed in triplicate or quadruplicate. Analyses of the cell responses were made after between 22 and 28 hours of serum deprivation and/or treatment with soy flour derived PAIs. Two assays were performed on each cell culture plate consisting of differential cell counts.
1. All non-adherent or loosely adherent cells were removed from the culture dish and counted by appropriate techniques, typically counting by electric particle counting instrument. These are the apoptotic cells, the serum deprived released cells (SDR), released by the action of cultivation in serum-free medium.
2. The remaining adherent cells (ADH) are exposed to a buffered, typically pH 7.3, balanced salt solution such as Hanks Balanced Salt Solution without calcium and magnesium salts containing 0.05% trypsin and 0.53 mM ethylenediaminetetraacetic acid (EDTA). Each culture is incubated at either room temperature or 37° C. on a rocking platform to ensure uniform distribution of the trypsin reagent over the culture surface. After a standardized period of time, typically 10 minutes, the released cells are removed from each culture dish and measured by the same means as described above, typically electronic particle counting.
All commercial samples were dissolved at a concentration of 10 mM (100× test concentration) in 1% bovine serum albumin (BSA), 0.5 mM calcium chloride, 0.5 mM magnesium chloride, at room temperature. All compounds were tested after pre-incubation in 1% BSA. The final concentration of BSA in the apoptosis was ≦0.01%. […] All tested compounds were obtained from Sigma. The BSA was obtained from Boehringer Mannheim.

Compound | ACTIVITY (anti-apoptotic activity of known phospholipids) | further results
CCCCCCCC/C=C\CCCCCCCC(=O)OC[C@@H](O)COP(=O)(O)O (stereo in doubt) [L-a-lysophosphatidic acid, oleoyl (C18:1, [cis]-9)] | ++ | Anti-apoptotic activity (in words) (in the presence of Bowman-Birk inhibitors): does not confer anti-apoptotic activity; Anti-apoptotic activity (in words) (in the presence of a protein or proteins to which it specifically binds (serum albumin)): possess anti-apoptotic activity; Anti-apoptotic activity (in words) (in the presence of fraction B): possessed anti-apoptotic activity; Effect of pre-incubation on anti-apoptotic activity (pre-incubation with BSA (FIG. 14)): enhanced; Effect of pre-incubation on anti-apoptotic activity (pre-incubation with fraction B (FIG. 14)): enhanced; Anti-apoptotic activity (in words) (substance or fraction alone): no anti-apoptotic activity
CCCCCCCC/C=C\CCCCCCCC(=O)OC[C@H](COP(=O)(O)O)OC(=O)CCCCCCC/C=C\CCCCCCCC (stereo in doubt) [L-a-phosphatidic acid, dioleoyl (C18:1, [cis]-9)] | 0 | 
L-a-lysophosphatidyl ethanolamine | 0 | 
L-a-phosphatidyl choline [L-a-phosphatidyl choline Type V-EA] | 0 | 
L-a-phosphatidyl ethanolamine [L-a-phosphatidyl ethanolamine, Type IV] | 0 | 
L-a-phosphatidyl inositol | 0 | 
